Where two headings read alike, the source gives them in different places.
Columns and labels:
[1] = system: TAOK1 (neojunction transcript); assay: In vivo PD RT-qPCR in NCI-N87 tumors, TAOK1; design: species or system CB17-SCID mice; conditions: 10 mg/kg IV single dose, NCI-N87 xenograft, versus vehicle
Experimental: (§1) Single cell suspension of 5 million cells per 0.1 mL (50% ATCC-modification-RPMI-1640-medium, Cat. No. A10491-01 (Thermo-Fisher Scientific); and 50% Corning Matrigel, Cat No. 356254 (VWR Scientific)) was injected subcutaneously on the right lateral flank with a syringe with a 25 Ga needle. Mice were randomized on day 0 at a mean tumor volume of 180-183 mm^3, n=8 per group for efficacy and n=4 per group for pharmacodynamics (PD). On day 1, test articles were administered (10 mg/kg) at a volume of 5 mL/kg intravenously every 7 days for 2 cycles for efficacy; a single course of treatment was used for PD assessment. Animals in the PD cohorts were euthanized at 24, 48, 72, and/or 96 hours post-dosing of a single dose, depending on the test article.
(§2) RNA was purified from tumor samples using MagMAX-96 for Microarrays kit and MagMAX Express-96 Deep Well Magnetic Particle Processor (ThermoFisher Scientific). Tumor samples (size 50-100 mg) were collected in RNAlater buffer and kept at −80° C. until RNA isolation. Tissue homogenization was performed by adding 2-3 ceramic beads and 1 mL of Tri-reagent into a tube containing tumors, followed by disruption on an Omni Bead Ruptor 24 instrument (Omni International). RNA isolation was done according to the manufacturer's instructions.
(§3) RNA lysates were isolated and reverse transcribed using TaqMan Fast Virus 1-Step Master Mixt (ThermoFisher Scientific) according to the manufacturer's instructions.
(§4) Quantitative PCR from cDNA was performed using TaqMan Gene Expression Master Mix (ThermoFisher Scientific) with transcript probes targeting FBXW5 or TAOK1 junctions duplexed with RPLP0 RNA VIC-PL (ThermoFisher Scientific) and quantified using the ΔΔCt method.
(§5) RT-qPCR of FBXW5 (mature mRNA transcript) and TAOK1 (neojunction transcript) were monitored. Test article or vehicle was given intravenously (IV) at 10 mg/kg. […] Tumors were isolated for RNA extraction and RT-qPCR. *p<0.05 versus vehicle using one-way ANOVA (FIG. 24A and FIG. 24B) or two-way ANOVA (FIG. 24C and FIG. 24D).

[2] = system: FBXW5 (mature mRNA transcript); assay: In vivo PD RT-qPCR in NCI-N87 tumors, FBXW5; design: species or system CB17-SCID mice; conditions: 10 mg/kg IV single dose, NCI-N87 xenograft, versus vehicle
Experimental: as §1, §2, §3, §4, §5

[3] = system: N87 cells; assay: Cell viability CellTiter-Glo, N87; type: cell-based, human; conditions: unconjugated payload of the ADC
Experimental: (§6) HCC1954 (American Type Culture Collection (ATCC)) breast ductal carcinoma cells were plated at 2000 cells/well in flat bottom 96-well tissue culture plates (Corning) in a total volume of 90 μL tissue culture medium supplemented with 10% fetal bovine serum (ThermoFisher Scientific). Cells were treated with a 3-fold serial dilution of compound from 200 nM to 0.03 nM. Each concentration was tested in triplicate. At the time of treatment, a plate of untreated cells was evaluated using CellTiter-Glo®2.0 Luminescent Cell Viability Assay according to the manufacturer's recommendations (Promega; #G9241). CellTiter-Glo® 2.0 reagent was added to the medium, incubated, and assayed on an EnVision Multilabel Reader (PerkinElmer). Values represent time zero (TO). […] Percentage growth inhibition was calculated as: [(T144−T0)/(C−T0)]×100 for concentrations for which T144>/=T0 or [(T144−T0)/T0]×100 for concentrations for which T144<T0. The dose response curve plots were generated using Prism 7 (Graphpad) and fit using nonlinear regression analysis and the log (inhibitor) versus response—variable slope (four parameters).
HCC1954 (ATCC), 2000 cells/well), N87 (ATCC, 4000 cells/well), SKBR3 (ATCC, 3000 cells/well), and MCF7 (ATCC, 1500 cells/well) cell lines were used. Cell viability analysis was performed as described in section 2.3.

[4] = Caco-2 permeability of ADC payload; type: in vitro ADME; conditions: human, payload; for efflux ratio at 2 h, 10 µM: Caco-2, B−A/A−B
Experimental: (§7) Integrity of cell monolayer was confirmed by TEER (transepithelial electrical resistance) and Lucifer yellow. Payloads were spiked in duplicate at 10 µM, separately, on both sides of the cell monolayer. Permeability rates from the apical to basolateral (A−B) direction and the basolateral to apical (B−A) direction were determined by sampling aliquots from both chambers immediately after treatment (t=0) and following incubation for 2 hours. Samples were protein precipitated with organic solvent containing internal standard and analyzed by LC-MS/MS (SCIEX; API 5500). The area ratio responses of payload/internal standard over time in both directions were used to generate permeability (cm/sec) values.

[5] = system: Caco-2 cells; assay: Caco-2 permeability of ADC payload; type: in vitro ADME; conditions: for Perm. Mean Caco-2 B-A Perm: corresponding free payload
Experimental: as §7

[6] = system: PC3 cells; assay: Cell viability, EPHA2-expressing PC3; type: cell-based; conditions: free payload of the ADC
Experimental: as §6
Anti-CD138 ADCs were tested in the CD138-expressing MOLP8 multiple myeloma cell line. Similarly, anti-EPHA2 ADCs were tested in the EPHA2-expressing PC3 prostate cancer cell line.

[7] = system: NCIH1650.1; assay: Payload cellular potency, CTGlo-ATS, 72 h, NCIH1650.1; type: cell-based; conditions: corresponding free payload, cell line #1, 72 h
[8] = system: THP1.1; assay: Payload cell potency and lethality CellTiter-Glo, THP1; type: cell-based; conditions: for GI50: Homo sapiens
Experimental: Each concentration was tested in triplicate. […] Values represent time zero (TO).

[9] = THP-1, read-out: Payload cell potency: CT..-ATS GMean GI50 (nM) THP1.1

Compound: CC(=O)N1CCC(n2nnc3c(F)cc(/C=C(\C)[C@H]4OC(=O)C[C@H](O)CC[C@H](C)[C@@H](OC(=O)N5CC[N+](C)(Cc6ccc(NC(=O)[C@H](C)NC(=O)[C@@H](NC(=O)CCCCCN7C(=O)C=CC7=O)C(C)C)cc6)CC5)/C=C/[C@@H]4C)cc32)CC1 [ADL5-D15, 4-((((2S,3S,6R,7S,10R,E)-2-((E)-1-(1-(1-acetylpiperidin-4-yl)-4-fluoro-1H-benzo[d][1,2,3]triazol-6-yl)prop-1-en-2-yl)-10-hydroxy-3,7-dimethyl-12-oxooxacyclododec-4-en-6-yl)oxy)carbonyl)-1-(4-((S)-2-((S)-2-(6-(2,5-dioxo-2,5-dihydro-1H-pyrrol-1-yl)hexanamido)-3-methylbutanamido)propanamido)benzyl)-1-methylpiperazin-1-ium]
- change in TAOK1 neojunction transcript in tumors [1]: showed an increase in TAOK1, but did not reach statistical significance
- change in FBXW5 mature mRNA transcript in tumors [2]: significant depletion of FBXW5

Compound: CC[C@H](O)[C@@H](C)[C@H]1O[C@@H]1C[C@H](C)/C=C/C=C(\C)[C@H]1OC(=O)C[C@H](O)CC[C@@](C)(OC)[C@@H](OC(=O)N2CCNCC2)/C=C/[C@@H]1C [D18, (2S,3S,6S,7R,10R,E)-10-hydroxy-2-((S,2E,4E)-7-((2R,3R)-3-((2R,3S)-3-hydroxypentan-2-yl)oxiran-2-yl)-6-methylhepta-2,4-dien-2-yl)-7-methoxy-3,7-dimethyl-12-oxooxacyclododec-4-en-6-yl piperazine-1-carboxylate]
- Payload Rmin (%) [3]: −92.127%
- efflux ratio at 2 h, 10 µM [4]: 23

Compound: CC[C@H](O)[C@@H](C)[C@H]1O[C@@H]1C[C@@](C)(O)/C=C/C=C(\C)[C@H]1OC(=O)C[C@H](O)CC[C@@](C)(OC(=O)N2CCNCC2)[C@@H](OC(C)=O)/C=C/[C@@H]1C [D8, (2S,3S,6S,7R,10R,E)-6-acetoxy-10-hydroxy-2-((R,2E,4E)-6-hydroxy-7-((2R,3R)-3-((2R,3S)-3-hydroxypentan-2-yl)oxiran-2-yl)-6-methylhepta-2,4-dien-2-yl)-3,7-dimethyl-12-oxooxacyclododec-4-en-7-yl piperazine-1-carboxylate]
- Payload Rmin (%) [3]: −34.052%
- Papp A→B at 2 h, 10 µM ([4]; Caco-2, apical to basolateral, 2 hours, read-out: Permeability Mean Caco-2 A-B Perm (10e−6 cm/s)): 0.138 ×10⁻⁶ cm/s
- Perm. Mean Caco-2 B-A Perm [5]: 2.027 10e−6 cm/s
- Payload Rmin [6]: −68.37%
- CTGlo-ATS GMean LD50 72 h NCIH1650.1 [7]: >10 µM

Compound: CC[C@H](O)[C@@H](C)[C@H]1O[C@@H]1C[C@@](C)(O)/C=C/C=C(\C)[C@H]1OC(=O)C[C@H](O)CC[C@@](C)(OC)[C@@H](OC(=O)N(C)CCNC)/C=C/[C@@H]1C [D20, (2S,3S,6S,7R,10R,E)-10-hydroxy-2-((R,2E,4E)-6-hydroxy-7-((2R,3R)-3-((2R,3S)-3-hydroxypentan-2-yl)oxiran-2-yl)-6-methylhepta-2,4-dien-2-yl)-7-methoxy-3,7-dimethyl-12-oxooxacyclododec-4-en-6-yl methyl(2-(methylamino)ethyl)carbamate]
- efflux ratio at 2 h, 10 µM [4]: 2.38

Compound: CC[C@H](O)[C@@H](C)[C@H]1O[C@@H]1C[C@@](C)(O)/C=C/C=C(\C)[C@H]1OC(=O)C[C@H](O)CC[C@@](C)(O)[C@@H](OC(=O)N2CCNCC2)/C=C/[C@@H]1C [D12]
- Perm. Mean Caco-2 B-A Perm [5]: 0.23 10e−6 cm/s
- CTGlo-ATS GMean LD50 72 h NCIH1650.1 [7]: >100 µM

Compound: C/C(=C\c1cc(F)cc(N2CCOCC2)c1)[C@H]1OC(=O)C[C@H](O)CC[C@H](C)[C@@H](OC(=O)N2CCN(C)CC2)/C=C/[C@@H]1C [D17]
- GI50 ([8]; THP-1, payload of the ADC, read-out: Payload cell potency: CT..-ATS GMean GI50 (nM) THP1.1): 2.83 nM

Compound: CC[C@H](O)[C@@H](C)C1OC1C[C@@](C)(O)/C=C/C=C(\C)[C@H]1OC(=O)C[C@H](O)CC[C@@](C)(OC)[C@@H](OC(=O)N2CCN(CCN3C(=O)C=CC3=O)CC2)/C=C/[C@@H]1C (stereo in doubt) [ADL14-D1, (2S,3S,6S,7R,10R,E)-10-hydroxy-2-((R,2E,4E)-6-hydroxy-7-((2S,3S)-3-((2R,3S)-3-hydroxypentan-2-yl)oxiran-2-yl)-6-methylhepta-2,4-dien-2-yl)-7-methoxy-3,7-dimethyl-12-oxooxacyclododec-4-en-6-yl 4-(2-(2,5-dioxo-2,5-dihydro-1H-pyrrol-1-yl)ethyl)piperazine-1-carboxylate]
- change in TAOK1 neojunction transcript in tumors [1]: did not exhibit statistically significant changes
- change in FBXW5 mature mRNA transcript in tumors [2]: did not exhibit statistically significant changes

Compound: CC[C@H](O)[C@@H](C)C1OC1C[C@@](C)(O)/C=C/C=C(\C)[C@H]1OC(=O)C[C@H](O)CC[C@@](C)(OC(C)=O)[C@@H](OC(=O)N2CCNCC2)/C=C/[C@@H]1C (stereo in doubt) [D4, (2S,3S,6S,7R,10R,E)-7-acetoxy-10-hydroxy-2-((R,2E,4E)-6-hydroxy-7-((2S,3S)-3-((2R,3S)-3-hydroxypentan-2-yl)oxiran-2-yl)-6-methylhepta-2,4-dien-2-yl)-3,7-dimethyl-12-oxooxacyclododec-4-en-6-yl piperazine-1-carboxylate]
- GI50 [8, 9]: 10.9 nM
- Payload Rmin (%) [3]: −81.775%
- Perm. Mean Caco-2 B-A Perm [5]: 1.79 10e−6 cm/s
- Payload Rmin [6]: −55.97%

Compound: C/C(=C\c1cc(F)cc(N2CCN(CC(=O)O)CC2)c1)[C@H]1OC(=O)C[C@H](O)CC[C@H](C)[C@@H](OC(=O)N2CCNCC2)/C=C/[C@@H]1C [D33, 2-(4-(3-fluoro-5-((E)-2-((2S,3S,6R,7S,10R,E)-10-hydroxy-3,7-dimethyl-12-oxo-6-((piperazine-1-carbonyl)oxy)oxacyclododec-4-en-2-yl)prop-1-en-1-yl)phenyl)piperazin-1-yl) acetic acid]
- efflux ratio at 2 h, 10 µM [4]: 4.08

Compound: CC[C@H](O)[C@@H](C)[C@H]1O[C@@H]1C[C@@](C)(O)/C=C/C=C(\C)[C@H]1OC(=O)C[C@H](O)CC[C@@](C)(OC)[C@@H](OC(=O)N2CCNC(CCC(=O)O)C2)/C=C/[C@@H]1C (stereo partly drawn) [D22, N-ethyl-N-isopropylpropan-3-(4-((((2S,3S,6S,7R,10R,E)-10-hydroxy-2-((R,2E,4E)-6-hydroxy-7-((2R,3R)-3-((2R,3S)-3-hydroxypentan-2-yl)oxiran-2-yl)-6-methylhepta-2,4-dien-2-yl)-7-methoxy-3,7-dimethyl-12-oxooxacyclododec-4-en-6-yl)oxy)carbonyl)piperazin-2-yl)propanoic acid]
- CTGlo-ATS Mean MinResponse % THP1.1 ([8]; payload of the ADC): −78.119%
- efflux ratio at 2 h, 10 µM [4]: 1.14

Compound: CC[C@H](O)[C@@H](C)[C@H]1O[C@@H]1C[C@@](C)(O)/C=C/C=C(\C)[C@H]1OC(=O)C[C@H](O)CC[C@@](C)(OC)[C@@H](OC(=O)N2CCNCC2)/C=C/[C@@H]1C (stereo in doubt) [D1]
- CTGlo-ATS Mean MinResponse % THP1.1 ([8]; payload of the ADC): −100.815%
- Payload Rmin (%) [3]: −40.041%
- Perm. Mean Caco-2 B-A Perm [5]: 2.05 10e−6 cm/s
- Payload Rmin [6]: −71.987%
- CTGlo-ATS GMean LD50 72 h NCIH1650.1 [7]: >10 µM

Compound: CC[C@H](O)[C@@H](C)[C@H]1O[C@@H]1C[C@@](C)(O)/C=C/C=C(\C)[C@H]1OC(=O)C[C@H](O)CC[C@@](C)(OC)[C@@H](OC(=O)N2CCN(C)CC2)/C=C/[C@@H]1C [D2, (2S,3S,6S,7R,10R,E)-10-hydroxy-2-((R,2E,4E)-6-hydroxy-7-((2R,3R)-3-((2R,3S)-3-hydroxypentan-2-yl)oxiran-2-yl)-6-methylhepta-2,4-dien-2-yl)-7-methoxy-3,7-dimethyl-12-oxooxacyclododec-4-en-6-yl 4-methylpiperazine-1-carboxylate]
- GI50 [8, 9]: 2.02 nM
- CTGlo-ATS Mean MinResponse % THP1.1 ([8]; payload of the ADC): −100.218%
- payload cell potency as compared to D1 ([8]; see Table 14): three-fold increase
- Payload Rmin (%) [3]: −72.706%
- payload permeability as compared to D1 ([5]; see Table 14): three-fold increase
- Payload Rmin [6]: −68.803%

Compound: CC[C@H](O)[C@@H](C)[C@H]1O[C@@H]1C[C@@](C)(O)/C=C/C=C(\C)[C@H]1OC(=O)C[C@H](O)CC[C@@](C)(O)[C@@H](OC(=O)N2CCN(C3CCCCCC3)CC2)/C=C/[C@@H]1C [D11, E7107]
- CTGlo-ATS Mean MinResponse % THP1.1 ([8]; payload of the ADC): −100.481%

Compound: CC[C@H](O)[C@@H](C)[C@H]1O[C@@H]1C[C@@](C)(O)/C=C/C=C(\C)[C@H]1OC(=O)C[C@H](O)CC[C@@](C)(OC)[C@@H](OC(=O)N2CCN(CCCC(=O)O)CC2)/C=C/[C@@H]1C [D25]
- Payload Rmin (%) [3]: 40.364%

Compound: CC(=O)N1CCC(n2nnc3c(F)cc(/C=C(\C)[C@H]4OC(=O)C[C@H](O)CC[C@H](C)[C@@H](OC(=O)N5CCN(C)CC5)/C=C/[C@@H]4C)cc32)CC1 [D15]
- Papp B→A at 2 h, 10 µM ([4]; Caco-2, basolateral to apical, 2 hours, read-out: Permeability Mean Caco-2 B-A Perm (10e−6 cm/s)): 28.9 ×10⁻⁶ cm/s
- efflux ratio at 2 h, 10 µM [4]: 7.84
- Payload Rmin [6]: −79.835%

Compound: CC[C@H](O)[C@@H](C)[C@H]1O[C@@H]1C[C@@](C)(O)/C=C/C=C(\C)[C@H]1OC(=O)C[C@H](O)CC[C@@](C)(OC(C)=O)[C@@H](OC(=O)N2CCN(C(=O)OCc3ccc(NC(=O)[C@H](CCCNC(N)=O)NC(=O)[C@@H](NC(=O)CCCCCN4C(=O)C=CC4=O)C(C)C)cc3)CC2)/C=C/[C@@H]1C [ADL1-D4]
- change in TAOK1 neojunction transcript in tumors [1]: significant increases in TAOK1
- change in FBXW5 mature mRNA transcript in tumors [2]: significant depletion of FBXW5

Compound: COc1cc2cc(c1Cl)N(C)C(=O)C[C@H](OC(=O)[C@H](C)N(C)C(=O)CCS)[C@]1(C)O[C@H]1[C@H](C)[C@@H]1C[C@@](O)(NC(=O)O1)[C@H](OC)/C=C/C=C(\C)C2 [DM1, reference compound]
- Payload cell lethality: CT..-ATS GMean LD50 (nM) THP1.1 ([8]; payload of the ADC): 3.287 nM

From patent US20260158152A1, “SPLICING MODULATOR ANTIBODY-DRUG CONJUGATES AND METHODS OF USE” (EISAI R&D MANAGEMENT CO., LTD., priority 2018, published 2026)
